Like-named read-outs stand apart in the source and are kept apart here.
What was measured:
A431 cells = assay: A431 cell proliferation assay (MTT), alone and in combination with Tarceva; assay type: cell-based; conditions: for IC50: further studies, Example 9, Table 7A, read-out: A431 Cell Proliferation (IC50 Value); for A431 Cell Proliferation CI Value: combination with Tarceva, CI <0.8 indicates synergy, Example 9, Table 7B
Description: This example describes an assay that measures the ability of compounds to inhibit the proliferation of cultured cells. This assay can also be used to assess whether combining two or more compounds produces additive, synergistic, or antagonistic effects on cell growth.
On day 1, the cells were seeded at 10^3 cells per well in 100 μl of complete media under standard conditions.
On day 2, the cells were washed and 100 μl serum free media was added. The cells were then incubated for at least 2 hours before the addition of compound(s). 20 μl of compound(s) was added to the respective wells and incubated at 37° C., 5% CO2 for 72 hrs.
On day 5, 50 μl of the MTT dye solution was added to each well. The plates were incubated at 37° C., 5% CO2 for 1 hr. The media was then aspirated and the cells were resuspended in […] of DMSO. The plates were allowed to incubate for 5 min at room temperature with gentle shaking.
The absorbance in each well was determined at 560 nm using a Polarstar plate reader.
The A431 cell line over-expresses the EGF receptor, and was utilized to assess the ability of AD4 compounds to inhibit EGF-mediated cell proliferation.

[1] = Stability toward liver microsome incubation; assay type: in vitro ADME
[2] = tested on: apoptosis-related proteins in A549 cells; assay: Proteome profile of apoptosis-related proteins; assay type: cell-based, human; conditions: 5 μM
Source text: This example describes an assay that measured the relative expression levels of 35 apoptosis-related proteins in a single sample of whole cell extract. Methods are according to Examples 1-2 unless otherwise specified.
The protocol and reagents were purchased from R&D systems (Human apoptosis array kit; cat. #ARY009). The kit consisted of an antibody array spotted on nitrocellulose membranes with each specific antibody printed in duplicate. The detection antibodies were biotinylated so they could be used with a streptavidin-HRP conjugate designed for chemiluminescent imaging. The protocol was modified to utilize the LiCor infrared imaging technology by substituting an infrared 680 nm-tagged streptavidin.
The following day, two μl of compound dilutions in 100% DMSO were added to the appropriate wells resulting in a final concentration of 5 μM. The plates were then incubated for 6 hours at 37° C., 5% CO2, and 85% relative humidity. Following incubation, the cells were washed with 2 ml of PBS, then lysed with 500 μl/well of Lysis buffer, supplemented with a 1/200 dilution of mammalian protease inhibitor cocktail (Sigma Aldrich). The plates were shaken for 30 min at room temperature, spun @ 14,000×g for 5 minutes. 250 μl of the supernatant was removed and added to 1.25 ml of Assay buffer 1. The supernatant and Assay buffer 1 were incubated with membranes overnight at room temperature with shaking.
The following day, the membranes were washed 3 times for 10 min each, with 1× wash buffer in individual 50 ml Falcon tubes at room temperature with rotation. The membranes were incubated with a 1/100 dilution of biotinylated detection antibodies for 3 hours at room temperature with shaking.
The membranes were washed, then incubated with a 1/1000 dilution of IR 680 nm-labeled streptavidin (LiCor) for 60 minutes with shaking in the dark. The membranes were again washed. Excess buffer was blotted from membranes, placed between two pieces of transparent plastic and imaged on the LiCor infrared imager. The LiCor Odyssey software is used to quantitate the pixel intensity of each spot in the array.
First, several compounds were evaluated in a proteome profiling array system containing antibodies to 35 apoptosis-related proteins. In this assay (see Example 3), the relative expression levels of these proteins in cell extracts are measured from treated and non-treated A549 cells.

A549 cells = assay: DNA fragmentation (Cell Death Detection ELISA), measurement of apoptosis; conditions: for activation at 1 µM / activation at 10 µM: Homo sapiens
Description: The plates were allowed to incubate overnight @ 37° C., 5% CO2. On day 2, the media was removed from the plates and 160 μl media containing 5% FBS was added. 40 μl of media-containing test compound in 100% DMSO (prepared at 5× the dosing concentration) was added to the existing media resulting in a final DMSO concentration of 0.5%. Cells were incubated in the presence of a compound for 24 hrs @ 37° C., 5% CO2.
After 24 hrs, the abovementioned plates were centrifuged at 200×g for 10 min. The media was removed by gently inverting the plate and disposing of the media onto a paper towel. The plates were tapped gently to remove excess media. 200 μl lysis buffer was added to each well, and mixed by shaking at 300 rpm. The plates were incubated at room temperature for 30 min. The plates were centrifuged at 200×g for 10 min and 20 μl of lysis supernatant was removed for use in ELISA analysis to detect cell death.
20 μl of the cell lysis supernatant was placed into streptavidin-coated plates with 20 μl positive control and 20 μl incubation buffer negative control. Add 80 μl Immunoreagent (for DNA fragment detection) to each well. The wells were covered with foil adhesive and shaken at 300 rpm for 2 h at room temperature. The supernatant solution was removed and the wells were washed 3 times with 300 μl incubation buffer. 100 μl of ABTS detection substrate was added to each well. The wells were incubated on a plate shaker at 250 rpm for approximately 10-20 min. 100 μl ABTS of stop buffer was then added. […] The absorbance measures the colored product spectrophotometrically, correlating with apoptosis.
The percent increase in DNA fragmentation produced by compounds at a concentration of 1 and 10 μM were compared to background, and to the response produced by 500 nM staurosporin.

[3] = tested on: p53 and phospho-p53 (S15) in A549 NSCLC cells; assay: p53 In-Cell Western; assay type: cell-based, human; conditions: about 1-3 μM
[4] = A549, read-out: % Inc. Relative to Staurosporin (500 nM), DNA fragmentation
[5] = A549, read-out: % Inc. over Background, DNA fragmentation

For `Cc1cc(Cl)cnc1NC(c1ccc(C(F)(F)F)cc1F)c1ccc2cccnc2c1O` (centres unmarked) [AD4-13042], the IC50 (A431 cells; Homo sapiens, A-431, A431 cells) was 2200 nM, the “A431 Cell Proliferation CI Value” (A431 cells) was 0.81 and the “stability (toward liver microsome incubation)” value (“stability” for short) [1] was “increased stability”.
In the case of `Oc1c(C(Nc2ccc(Cl)cn2)c2ccc(C(F)(F)F)cc2)ccc2cccnc12` (centres unmarked) [AD4-13053], the “A431 Cell Proliferation CI Value” (A431 cells) is reported as 0.78 and the “stability” value [1] is reported as “increased stability over AD4-10628”.
For `Cc1cc(Cl)cnc1NC(c1ccc(Cl)cc1Cl)c1ccc2cccnc2c1O` (centres unmarked) [AD4-13130], the “phosphorylated forms of p53” value [2] was “increased all three phosphorylated forms of p53”, the activation at 1 µM (A549 cells; [4]) was 58% and the activation at 10 µM (A549 cells; [4]) was 65%. For the same compound, the activation at 1 µM (A549 cells; [5]) was 565% and the activation at 10 µM (A549 cells; [5]) was 614%.
In the case of `Oc1c(C(Nc2ncc(C(F)(F)F)cc2F)c2ccc(Cl)cc2Cl)ccc2cccnc12` (centres unmarked) [AD4-13165], the “phosphorylated forms of p53” value [2] is reported as “increased all three phosphorylated forms of p53”, the “stability” value [1] is reported as “increased stability” and the activation at 1 µM (A549 cells; [4]) is reported as 24%. For the same compound, the activation at 10 µM (A549 cells; [4]) was 74%, the activation at 1 µM (A549 cells; [5]) was 172% and the activation at 10 µM (A549 cells; [5]) was 582%.
With `Oc1c(C(Nc2cc(Cl)c(Cl)cn2)c2ccc(Cl)cc2Cl)ccc2cccnc12` (centres unmarked) [AD4-13178] the “phosphorylated forms of p53” value [2] was “increased all three phosphorylated forms of p53”, the activation at 10 µM (A549 cells; [4]) was 68% and the activation at 1 µM (A549 cells; [5]) was 395%. It also gave an activation at 10 µM (A549 cells; [5]) of 581%.
In the case of `Cc1nc(NC(c2ccc(Cl)cc2Cl)c2ccc3cccnc3c2O)c(Cl)cc1Cl` (centres unmarked) [AD4-13206], the “stability” value [1] is reported as “increased stability”.
In the case of `CCc1cc(Cl)cnc1NC(c1ccc(Cl)cc1)c1ccc2cccnc2c1O` (centres unmarked) [AD4-13225], the “phosphorylated forms of p53” value [2] is reported as “increased all three phosphorylated forms of p53”, the activation at 1 µM (A549 cells; [4]) is reported as 48% and the activation at 10 µM (A549 cells; [4]) is reported as 42%. It also gave an activation at 1 µM (A549 cells; [5]) of 508% and an activation at 10 µM (A549 cells; [5]) of 458%.
With `Cc1cc(Cl)cnc1NC(c1ccc(Cl)c(F)c1)c1ccc2cccnc2c1O` (centres unmarked) [AD4-13229] the “phosphorylated forms of p53” value [2] was “increased all three phosphorylated forms of p53”, the activation at 1 µM (A549 cells; [4]) was 68% and the activation at 10 µM (A549 cells; [4]) was 84%. For the same compound, the activation at 1 µM (A549 cells; [5]) was 531% and the activation at 10 µM (A549 cells; [5]) was 667%.
With `Cc1cc(Cl)cnc1NC(c1ccc2cccnc2c1O)c1c(F)c(F)c(OCC(F)(F)F)c(F)c1F` (centres unmarked) [AD4-13243] the IC50 (A431 cells; A431 cells) was 2200 nM, the “S15p-p53 (phosphorylated S15 p53)” value [3] was “significantly increased” and the “total p53 expression” value [3] was “significantly increased”. For the same compound, the “phosphorylated forms of p53” value [2] was “increased all three phosphorylated forms of p53”, the “DNA fragmentation / apoptosis (in words)” value (A549 cells; A549 cells) was “increased DNA fragmentation” and the “% Inc. over Background, DNA fragmentation” value (A549 cells; A549 cells, 1 μM) was 551%. For the same compound, the “% Inc. over Background, DNA fragmentation” value (A549 cells; A549 cells, 10 μM) was 716%.
